Measurements as given in ChEMBL document CHEMBL1201862, “PubChem BioAssay data set” (2004).
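Growth conditions: 96-well plates. Treatment: test compound, 48 hours, 5 concentrations. Analysis: linear interpolation between bracketing concentrations; unreached endpoints set to highest concentration. GI50 marks 50% less growth.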 Calls of active or inactive are those of the source. Cut-off read from the data, not from the text of the source: active = GI50 up to about 1.1 µM and inactive = higher.

Columns and labels:
Assay in all cases: DTP human tumour cell line panel, 48 h
786-0 = system: 786-0
A498 = system: A498
A549 = system: A549
CCRF-CEM = system: CCRF-CEM
DLD-1 = system: DLD-1
HCT-116 = system: HCT-116
HOP-62 = system: HOP-62
IGROV-1 = system: IGROV-1
M14 = system: M14
MOLT-4 = system: MOLT-4
NCI-H226 = system: NCI-H226
OVCAR-3 = system: OVCAR-3
SF-268 = system: SF-268
SF-295 = system: SF-295
SF-539 = system: SF-539
SK-MEL-5 = system: SK-MEL-5
SK-OV-3 = system: SK-OV-3
SN12C = system: SN12C
MCF7 = system: MCF7
PC-3 = system: PC-3

Measured: GI50

CN(C)CCNC(=O)c1cccc2ccc(-c3ccc(-c4ccccc4)cc3)nc12
inactive: 786-0 1.79 µM | A498 3.44 µM | A549 2.89 µM | CCRF-CEM 2.72 µM | DLD-1 2.45 µM | HCT-116 1.72 µM | HOP-62 3.3 µM | IGROV-1 12.6 µM | M14 1.77 µM | MOLT-4 1.91 µM | NCI-H226 13.1 µM | OVCAR-3 6.01 µM | SF-268 3.37 µM | SF-295 2.21 µM | SF-539 1.8 µM | SK-MEL-5 1.72 µM | SK-OV-3 17 µM | SN12C 6.59 µM

O=C1C=CC=CC2CC=C[C@@H](O)C12 (some centres undefined)
inactive: 786-0 17.2 µM | A498 15.9 µM | A549 26.2 µM | CCRF-CEM 15.3 µM | DLD-1 25.1 µM | HCT-116 13.2 µM | HOP-62 45.7 µM | IGROV-1 39.6 µM | M14 18.7 µM | MOLT-4 20.9 µM | OVCAR-3 > 10 µM | SF-268 21.3 µM | SF-295 20.7 µM | SF-539 24.5 µM | SK-MEL-5 18 µM | SK-OV-3 69.7 µM | SN12C 22.4 µM

CCc1nc2cc(/N=N/c3c(O)ccc4ccccc34)ccc2[nH]1
inactive: 786-0 16.1 µM | A498 21.5 µM | A549 21.4 µM | CCRF-CEM 3.47 µM | DLD-1 15 µM | HCT-116 15.5 µM | HOP-62 21.1 µM | IGROV-1 19.6 µM | M14 19.6 µM | MCF7 18.4 µM | MOLT-4 7.98 µM | NCI-H226 22.3 µM | OVCAR-3 16.4 µM | PC-3 14.6 µM | SF-268 22.2 µM | SF-295 20.8 µM | SF-539 18.1 µM | SK-MEL-5 18.5 µM | SK-OV-3 24.7 µM | SN12C 20.5 µM

COC(=O)NC(=O)c1cn(CCCOC(=O)CCCCCCCCC(=O)OCCCn2cc(C(=O)NC(=O)OC)c(=O)[nH]c2=O)c(=O)[nH]c1=O
inactive: 786-0 88.5 µM | A498 > 100 µM | A549 > 100 µM | CCRF-CEM > 100 µM | DLD-1 > 100 µM | HCT-116 > 100 µM | HOP-62 23.1 µM | IGROV-1 85.1 µM | M14 > 100 µM | MOLT-4 > 100 µM | NCI-H226 > 100 µM | OVCAR-3 > 100 µM | SF-268 31.3 µM | SF-295 47.3 µM | SF-539 71.1 µM | SK-MEL-5 > 100 µM | SN12C > 100 µM

CC(=O)NNc1nc(C)c(C(=O)/C=C/c2ccc(Cl)cc2)s1
inactive: 786-0 > 100 µM | A498 > 100 µM | A549 > 100 µM | CCRF-CEM > 100 µM | DLD-1 > 100 µM | HOP-62 > 100 µM | IGROV-1 > 100 µM | MOLT-4 > 100 µM | OVCAR-3 > 100 µM | SF-268 > 100 µM | SF-295 > 100 µM | SF-539 > 100 µM | SK-MEL-5 > 100 µM | SK-OV-3 > 100 µM

O=c1c2cc(Br)cc(Br)c2[nH]c(=S)n1-c1ccccc1
inactive: 786-0 99.1 µM | A498 > 100 µM | A549 63.1 µM | CCRF-CEM 42.2 µM | DLD-1 > 100 µM | HCT-116 48.8 µM | HOP-62 88.5 µM | IGROV-1 > 100 µM | M14 > 100 µM | NCI-H226 30.2 µM | OVCAR-3 60.1 µM | SF-268 52.4 µM | SF-295 > 100 µM | SF-539 83 µM | SK-MEL-5 54.8 µM | SK-OV-3 > 100 µM | SN12C 78.5 µM

CCOC(=O)NC(=O)c1cn(CCCO)c(=O)[nH]c1=O
inactive: 786-0 > 100 µM | A498 > 100 µM | A549 > 100 µM | CCRF-CEM > 100 µM | DLD-1 > 100 µM | HCT-116 > 100 µM | HOP-62 > 100 µM | IGROV-1 > 100 µM | M14 > 100 µM | MOLT-4 > 100 µM | NCI-H226 > 100 µM | OVCAR-3 > 100 µM | SF-268 > 100 µM | SF-295 > 100 µM | SF-539 > 100 µM | SK-MEL-5 > 100 µM | SK-OV-3 > 100 µM | SN12C > 100 µM

COc1cc(O)c2c(c1)C(=O)C=C(Cl)C2=O
inactive: 786-0 > 100 µM | A498 > 100 µM | A549 > 100 µM | CCRF-CEM > 100 µM | DLD-1 30.3 µM | HCT-116 66.4 µM | IGROV-1 > 100 µM | M14 > 100 µM | MOLT-4 > 100 µM | NCI-H226 28.2 µM | OVCAR-3 > 100 µM | SF-268 > 100 µM | SF-295 > 100 µM | SF-539 68.4 µM | SK-MEL-5 87.1 µM | SK-OV-3 > 100 µM

CSc1nc(NC2OCC(OC(C)=O)C(OC(C)=O)C2OC(C)=O)c2c(OC(C)=O)c(C)c(=O)oc2n1 (centres undefined)
inactive: 786-0 > 100 µM | A498 > 100 µM | A549 > 100 µM | CCRF-CEM > 100 µM | DLD-1 > 100 µM | HCT-116 > 100 µM | HOP-62 > 100 µM | IGROV-1 > 100 µM | M14 > 100 µM | MOLT-4 > 100 µM | NCI-H226 > 100 µM | OVCAR-3 > 100 µM | SF-295 > 100 µM | SF-539 > 100 µM | SK-MEL-5 > 100 µM | SK-OV-3 > 100 µM | SN12C > 100 µM

CC1=C(C)C(=O)c2c(cc3ccc4ccccc4n23)C1=O
inactive: 786-0 > 100 µM | A498 > 100 µM | A549 > 100 µM | CCRF-CEM > 100 µM | DLD-1 > 100 µM | IGROV-1 > 100 µM | M14 > 100 µM | MOLT-4 > 100 µM | NCI-H226 > 100 µM | OVCAR-3 > 100 µM | SF-268 > 100 µM | SF-295 > 100 µM | SF-539 > 100 µM | SK-MEL-5 > 100 µM | SK-OV-3 > 100 µM | SN12C > 100 µM

COC(=O)C1C(=O)O[C@@H](c2ccc(OC)cc2)C1C(=O)OC (some centres undefined)
inactive: 786-0 > 100 µM | A498 52.4 µM | A549 > 100 µM | CCRF-CEM > 100 µM | DLD-1 > 100 µM | HCT-116 > 100 µM | HOP-62 > 100 µM | IGROV-1 > 100 µM | M14 > 100 µM | MOLT-4 > 100 µM | NCI-H226 > 100 µM | OVCAR-3 > 100 µM | SF-268 > 100 µM | SF-295 > 100 µM | SF-539 > 100 µM | SK-MEL-5 > 100 µM | SK-OV-3 > 100 µM | SN12C > 100 µM

CC1CCP(=O)(c2ccccc2)CC1 (centres undefined)
inactive: 786-0 > 100 µM | A498 > 10 µM | A549 > 100 µM | CCRF-CEM > 100 µM | DLD-1 > 100 µM | HOP-62 > 100 µM | IGROV-1 > 100 µM | M14 > 100 µM | MOLT-4 > 100 µM | OVCAR-3 > 100 µM | SF-268 > 100 µM | SF-295 > 100 µM | SF-539 > 100 µM | SK-MEL-5 > 100 µM | SK-OV-3 > 100 µM | SN12C > 100 µM
